Format in all cases: biochemical
A short description of assay [1]: Superoxide dismutase (SOD) assay: xanthene oxidase/hypoxanthene, XTT reduction. As to conditions: SOD activity from IC50 of XTT reduction (one International Unit), normalised; 0.05M Tris/HCl pH 7.4, 25° C. As to the method:
This method is adapted from what has become the standard method for the measurement of SOD activity (McCord J. M., Fridovich, I., J. Biol. Chem. 244, 6049-6055, 1969). Briefly, a steady-state production of superoxide anion was maintained by the action of xanthene oxidase (XO) on hypoxanthene (HX) at physiological pH. Presence of the anion was measured by the reduction of XTT (3′-{1-(phenylamino)-carbonyl]-3,4-tetrazolium]-bis(4-methoxy-6-nitro)benzsulphonic acid to a water-soluble product with an absorbance maximum at ˜470 nm. Hypoxanthene concentrations were titrated so as to give a steady-state rate of XTT reduction of 0.025 Optical Density Units (OD) per minute at 25° C.
(§1) The assays for compound antioxidant activity were carried out in 96-well microtitre plates using a DIAS modular assay robot instrument (Dynatech Ltd.) Compounds were solublised in DMF at 10 mM. DMF concentrations in the assay never exceeded 1%, were tolerated and were controlled for in assay plates.
Xanthene oxidase (Sigma X1875) 0.01 U/ml and XTT (Sigma X4251), 0.5 mM and hypoxanthene (Sigma H9377), typically at […], were incubated in the presence of various doses of compounds at 25° C. in 0.05M Tris/HCI pH 7.4. Rates of XTT reduction were measured over 5 minutes at 490 nm. Dose-response curves were constructed for inhibition by the compound of control rates of XTT reduction. […]
(Formazan colour is commonly taken as a measure of viable cells.)

Assay [2] is described as follows: Catalase (CAT) assay: removal of hydrogen peroxide, HRP/ABTS read-out. As to conditions: amount of hydrogen peroxide removed per minute, per mmol of compound; 0.05M Tris HCl pH 7.4, 25° C., 60 mins.
Source text: This method measures catalase activity as the ability to remove hydrogen peroxide from solution in the absence of hydrogen donors over one hour. After this time any remaining peroxide was removed by introduction to the mixture of high concentrations of horseradish peroxidase and the hydrogen donor 2,2′-azino-di-[3-ethyl-benzothiazoline-(6)-sulphonic acid (ABTS). This rapid reaction produces peroxide-concentration-dependant product with a maximal absorbance at 405 nm.
as §1
Hydrogen peroxide (Sigma H1009) 100 mM was incubated with various concentrations of compound in 0.05M Tris HCI pH 7.4 at 25° C. for 60 mins. […] Plates were then read for absorbance at 405 nm. A standard curve for absorbance against known hydrogen peroxide concentration was constructed. Absorbance data for wells containing compound were interpolated against this curve using the software tools Excel (Microsoft Corp.) and Xlfit (ID Business Solutions). […]
The catalase assay procedure described above provides certain advantages over previously described assays. […] The oxidation of ABTS results in a colour change which can be measured. […]

Assay [3] in a line: Peroxidase (POD) assay: hydrogen peroxide removal with hydrogen donor ABTS. To be noted: ABTS 3 mM, 0.05M Tris HCl pH 7.4, 25° C., 2 minutes, interpolated against horseradish peroxidase standard curve. As to the method:
This method measures the ability of the compounds to remove hydrogen peroxide in the presence of the hydrogen donor 2,2′-azino-di-[3-ethyl-benzothiazoline-(6)-sulphonic acid (ABTS) (Galati, H., J. Clin. Chem. Clin. Biochem. (1979) 17, 1-7).
as §1
ABTS (Sigma A-1888) 3 mM was incubated with various concentrations of compound in 0.05M Tris HCI pH 7.4 at 25° C. A range of standard concentrations of horseradish peroxidase (Sigma P-6140) were included on each microtitre plate. Hydrogen peroxide (Sigma H1009) 100 mM was added and the plate incubated at 25° C. for 2 minutes. Absorbance at 405 nm was measured and the rates of ABTS […] calculated. A standard curve was constructed using data from wells containing known concentrations of peroxidase. Data for wells containing compound were interpolated against this curve using the software tools Excel (Microsoft Corp.) and Xlfit (ID Business Solutions). Estimations of peroxidase activity were given as International Units of peroxidase activity/mmol compound.

Each structure is given as a SMILES string.

This passage reports SOD, CAT and POD results from patent US6541490B1, “Bipyridine manganese complexes” (Eukarion, Inc., priority 1998, dated 2003).

Consider `CCCCCCc1cccc2c1[O][Mn]([O]C(C)=O)[O]c1c(CCCCCC)cccc1-c1cccc(n1)-c1cccc-2n1` [Example 18, 6,6′-bis(3-Hexyl-2-hydroxyphenyl)-2,2′-bipyridine-manganese(III)acetate], for which the SOD in assay [1] was 41.43 U/mmol compound. In addition, the CAT in assay [2] turned out to be 0.0083. For the same compound, in assay [3], the POD was 209.92 International Units of peroxidase activity/mmol compound.
